From ChEMBL document CHEMBL4052759, “Discovery of DS79182026: A potent orally active hepcidin production inhibitor” (Bioorg Med Chem Lett, 2017)
One block for each compound: values may come before it.

Experiments:
[1] = target: T1, Serine/threonine-protein kinase Sgk1 (Homo sapiens) (UniProt O00141); assay: Inhibition of SGK1 (unknown origin) at 0.078 uM relative to control
T1 sequence (whole entry): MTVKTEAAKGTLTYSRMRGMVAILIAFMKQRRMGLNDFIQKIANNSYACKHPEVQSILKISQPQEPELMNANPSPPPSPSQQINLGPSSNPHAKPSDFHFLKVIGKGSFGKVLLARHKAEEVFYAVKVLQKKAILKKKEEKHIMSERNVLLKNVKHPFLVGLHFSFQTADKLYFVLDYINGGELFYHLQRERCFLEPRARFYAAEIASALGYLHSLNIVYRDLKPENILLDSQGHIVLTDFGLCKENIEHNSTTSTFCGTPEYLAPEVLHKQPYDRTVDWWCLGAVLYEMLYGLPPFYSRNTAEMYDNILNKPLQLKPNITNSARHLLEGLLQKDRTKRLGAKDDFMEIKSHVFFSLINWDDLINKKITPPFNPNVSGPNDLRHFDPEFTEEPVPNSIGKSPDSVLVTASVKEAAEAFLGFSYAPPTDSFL

[2] = target: Mitogen-activated protein kinase 3 (Homo sapiens) (UniProt P27361); assay: Inhibition of Erk1 (unknown origin) at 0.078 uM relative to control
[3] = target: Inhibitor of nuclear factor kappa-B kinase subunit beta (Homo sapiens) (UniProt O14920); assay: Inhibition of IKK-beta (unknown origin) at 0.49 uM relative to control
Sequence of Inhibitor of nuclear factor kappa-B kinase subunit beta (Homo sapiens) (O14920 whole entry): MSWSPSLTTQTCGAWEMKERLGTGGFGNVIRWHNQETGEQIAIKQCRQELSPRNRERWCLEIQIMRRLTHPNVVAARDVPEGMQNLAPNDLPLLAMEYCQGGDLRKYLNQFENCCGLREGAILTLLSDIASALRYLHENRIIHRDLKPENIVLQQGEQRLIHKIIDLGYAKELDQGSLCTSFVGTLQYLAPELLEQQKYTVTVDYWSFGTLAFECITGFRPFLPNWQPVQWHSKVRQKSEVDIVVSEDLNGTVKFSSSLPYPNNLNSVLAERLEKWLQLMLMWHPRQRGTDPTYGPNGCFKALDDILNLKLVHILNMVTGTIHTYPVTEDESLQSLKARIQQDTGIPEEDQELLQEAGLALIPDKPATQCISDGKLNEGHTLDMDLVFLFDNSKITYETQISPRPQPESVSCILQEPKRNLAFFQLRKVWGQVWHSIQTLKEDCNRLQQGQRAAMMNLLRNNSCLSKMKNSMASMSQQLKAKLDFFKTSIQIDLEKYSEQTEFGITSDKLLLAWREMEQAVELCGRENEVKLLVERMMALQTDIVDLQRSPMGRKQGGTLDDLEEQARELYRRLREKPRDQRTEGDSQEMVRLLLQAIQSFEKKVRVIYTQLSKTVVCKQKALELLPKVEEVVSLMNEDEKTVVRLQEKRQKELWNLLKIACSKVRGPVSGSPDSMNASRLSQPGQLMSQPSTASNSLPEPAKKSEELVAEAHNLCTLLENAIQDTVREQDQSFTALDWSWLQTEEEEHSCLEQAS

[4] = target: Protein kinase C delta type (Homo sapiens) (UniProt Q05655); assay: Inhibition of PKC-delta (unknown origin) at 0.49 uM relative to control
[5] = target: Dual specificity tyrosine-phosphorylation-regulated kinase 4 (Homo sapiens) (UniProt Q9NR20); assay: Inhibition of DYRK4 (unknown origin) at 0.49 uM relative to control
Sequence of Dual specificity tyrosine-phosphorylation-regulated kinase 4 (Homo sapiens) (Q9NR20 whole entry): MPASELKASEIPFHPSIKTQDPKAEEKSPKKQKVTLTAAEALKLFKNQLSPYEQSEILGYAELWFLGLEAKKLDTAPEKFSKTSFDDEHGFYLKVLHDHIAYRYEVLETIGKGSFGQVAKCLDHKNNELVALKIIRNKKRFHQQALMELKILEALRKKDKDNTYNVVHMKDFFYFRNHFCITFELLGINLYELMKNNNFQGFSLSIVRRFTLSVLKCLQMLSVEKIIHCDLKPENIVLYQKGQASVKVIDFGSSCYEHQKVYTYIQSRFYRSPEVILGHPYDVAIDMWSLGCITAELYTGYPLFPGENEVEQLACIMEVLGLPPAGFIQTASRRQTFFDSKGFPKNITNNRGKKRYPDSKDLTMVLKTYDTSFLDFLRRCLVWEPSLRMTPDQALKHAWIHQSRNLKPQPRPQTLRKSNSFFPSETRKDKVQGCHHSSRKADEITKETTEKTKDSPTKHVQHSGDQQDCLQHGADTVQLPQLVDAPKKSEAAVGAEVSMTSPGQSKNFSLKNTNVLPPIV

[6] = target: Serine/threonine-protein kinase Nek6 (Homo sapiens) (UniProt Q9HC98); assay: Inhibition of NEK6 (unknown origin) at 0.49 uM relative to control
[7] = target: T2, Protein kinase C zeta type (Homo sapiens) (UniProt Q05513); assay: Inhibition of PKC-zeta (unknown origin) at 0.49 uM relative to control
T2 sequence (whole entry): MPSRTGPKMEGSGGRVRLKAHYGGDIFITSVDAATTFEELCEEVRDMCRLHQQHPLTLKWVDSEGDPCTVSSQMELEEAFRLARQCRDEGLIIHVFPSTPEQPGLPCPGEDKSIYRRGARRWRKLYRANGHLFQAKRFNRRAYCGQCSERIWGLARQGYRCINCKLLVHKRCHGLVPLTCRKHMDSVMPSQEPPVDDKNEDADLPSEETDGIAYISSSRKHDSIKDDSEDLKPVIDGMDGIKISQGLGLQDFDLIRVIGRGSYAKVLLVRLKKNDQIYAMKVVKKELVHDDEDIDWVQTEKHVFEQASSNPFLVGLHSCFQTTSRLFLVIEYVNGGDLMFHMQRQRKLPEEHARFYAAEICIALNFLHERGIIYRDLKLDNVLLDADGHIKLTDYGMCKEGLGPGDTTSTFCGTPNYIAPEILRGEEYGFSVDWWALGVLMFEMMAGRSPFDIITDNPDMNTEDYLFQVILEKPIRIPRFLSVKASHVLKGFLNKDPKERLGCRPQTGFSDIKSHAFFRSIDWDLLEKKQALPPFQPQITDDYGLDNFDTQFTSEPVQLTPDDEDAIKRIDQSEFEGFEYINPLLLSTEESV

[8] = target: Discoidin domain-containing receptor 2 (Homo sapiens) (UniProt Q16832); assay: Inhibition of DDR2 (unknown origin) at 0.49 uM relative to control
Sequence of Discoidin domain-containing receptor 2 (Homo sapiens) (Q16832 whole entry, the tested form may be a part): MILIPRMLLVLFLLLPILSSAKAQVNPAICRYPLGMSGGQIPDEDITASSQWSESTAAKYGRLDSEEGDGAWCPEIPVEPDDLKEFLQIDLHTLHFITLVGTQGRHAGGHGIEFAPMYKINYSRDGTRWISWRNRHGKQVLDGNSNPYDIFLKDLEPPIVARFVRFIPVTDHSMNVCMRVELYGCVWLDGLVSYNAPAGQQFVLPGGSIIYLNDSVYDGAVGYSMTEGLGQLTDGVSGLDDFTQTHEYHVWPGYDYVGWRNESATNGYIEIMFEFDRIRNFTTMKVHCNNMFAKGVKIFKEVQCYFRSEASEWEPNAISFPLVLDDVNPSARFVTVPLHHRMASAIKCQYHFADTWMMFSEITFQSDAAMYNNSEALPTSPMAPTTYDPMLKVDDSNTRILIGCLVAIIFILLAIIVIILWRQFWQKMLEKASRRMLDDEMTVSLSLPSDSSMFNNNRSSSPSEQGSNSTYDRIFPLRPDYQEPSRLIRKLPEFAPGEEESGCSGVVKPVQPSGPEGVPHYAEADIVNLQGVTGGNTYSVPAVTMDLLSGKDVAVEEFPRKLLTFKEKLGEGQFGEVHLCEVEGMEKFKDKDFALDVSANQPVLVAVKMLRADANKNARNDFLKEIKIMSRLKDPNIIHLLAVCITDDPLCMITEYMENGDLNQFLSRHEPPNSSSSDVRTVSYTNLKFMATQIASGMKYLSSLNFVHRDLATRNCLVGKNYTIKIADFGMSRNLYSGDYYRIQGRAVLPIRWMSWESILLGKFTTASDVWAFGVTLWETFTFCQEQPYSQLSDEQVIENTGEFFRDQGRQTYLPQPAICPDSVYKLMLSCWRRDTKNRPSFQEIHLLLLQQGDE

[9] = target: Tyrosine-protein kinase HCK (Homo sapiens) (UniProt P08631); assay: Inhibition of Hck (unknown origin) at 0.49 uM relative to control
Sequence of Tyrosine-protein kinase HCK (Homo sapiens) (P08631 2-526 limits assumed): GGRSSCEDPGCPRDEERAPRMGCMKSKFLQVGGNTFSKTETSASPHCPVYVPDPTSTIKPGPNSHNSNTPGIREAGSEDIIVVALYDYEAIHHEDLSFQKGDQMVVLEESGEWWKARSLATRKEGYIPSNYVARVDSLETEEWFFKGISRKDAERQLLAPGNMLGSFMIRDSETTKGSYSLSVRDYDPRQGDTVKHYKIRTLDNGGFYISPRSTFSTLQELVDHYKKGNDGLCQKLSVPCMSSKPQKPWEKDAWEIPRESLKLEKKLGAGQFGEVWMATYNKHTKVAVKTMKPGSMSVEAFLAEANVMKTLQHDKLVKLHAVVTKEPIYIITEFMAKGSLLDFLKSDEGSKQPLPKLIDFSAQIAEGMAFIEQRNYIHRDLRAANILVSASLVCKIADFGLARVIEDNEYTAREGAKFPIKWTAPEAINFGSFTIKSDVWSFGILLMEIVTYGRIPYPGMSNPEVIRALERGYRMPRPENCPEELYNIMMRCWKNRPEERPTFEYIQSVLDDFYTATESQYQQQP

Homo sapiens = species on record: Homo sapiens; assay: Inhibition of PKA (unknown origin) at 0.49 uM relative to control
[10] = target: T3, Aurora kinase A (Homo sapiens) (UniProt O14965); assay: Inhibition of AurA (unknown origin) at 0.45 uM relative to control
T3 sequence (whole entry): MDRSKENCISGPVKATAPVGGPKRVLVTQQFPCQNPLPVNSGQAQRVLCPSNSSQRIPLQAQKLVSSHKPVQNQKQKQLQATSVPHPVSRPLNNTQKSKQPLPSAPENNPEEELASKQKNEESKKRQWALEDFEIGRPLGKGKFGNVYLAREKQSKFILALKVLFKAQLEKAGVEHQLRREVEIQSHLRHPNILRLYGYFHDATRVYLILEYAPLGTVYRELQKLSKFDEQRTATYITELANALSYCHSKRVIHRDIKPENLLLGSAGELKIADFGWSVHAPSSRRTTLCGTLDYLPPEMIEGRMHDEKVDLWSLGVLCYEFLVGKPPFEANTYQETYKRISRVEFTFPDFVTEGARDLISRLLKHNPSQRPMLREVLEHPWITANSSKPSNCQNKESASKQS

[11] = target: Serine/threonine-protein kinase DCLK1 (Homo sapiens) (UniProt O15075); assay: Inhibition of DCAMKL1 (unknown origin) at 0.45 uM relative to control
Sequence of Serine/threonine-protein kinase DCLK1 (Homo sapiens) (O15075 whole entry): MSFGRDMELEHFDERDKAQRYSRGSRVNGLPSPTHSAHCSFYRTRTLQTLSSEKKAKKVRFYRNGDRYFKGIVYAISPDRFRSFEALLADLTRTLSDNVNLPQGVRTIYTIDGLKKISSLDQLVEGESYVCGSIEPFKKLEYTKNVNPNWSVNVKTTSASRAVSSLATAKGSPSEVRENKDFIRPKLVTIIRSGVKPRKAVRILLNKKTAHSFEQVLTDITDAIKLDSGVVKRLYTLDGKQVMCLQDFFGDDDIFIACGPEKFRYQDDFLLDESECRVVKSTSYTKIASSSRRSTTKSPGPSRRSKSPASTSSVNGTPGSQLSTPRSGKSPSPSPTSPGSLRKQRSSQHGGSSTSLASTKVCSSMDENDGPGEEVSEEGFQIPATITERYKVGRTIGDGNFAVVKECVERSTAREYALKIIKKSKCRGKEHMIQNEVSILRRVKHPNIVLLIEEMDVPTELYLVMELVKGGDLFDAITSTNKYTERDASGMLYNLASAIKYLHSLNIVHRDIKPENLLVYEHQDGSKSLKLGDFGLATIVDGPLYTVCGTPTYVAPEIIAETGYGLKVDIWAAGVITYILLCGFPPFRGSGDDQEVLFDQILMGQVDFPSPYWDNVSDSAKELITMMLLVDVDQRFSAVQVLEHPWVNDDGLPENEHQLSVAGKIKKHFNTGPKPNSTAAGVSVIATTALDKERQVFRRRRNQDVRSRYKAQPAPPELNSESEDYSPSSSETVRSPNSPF

[12] = target: T4, cGMP-dependent protein kinase 1 (Homo sapiens) (UniProt Q13976); assay: Inhibition of PKG1-beta (unknown origin) at 0.45 uM relative to control
T4 sequence (whole entry): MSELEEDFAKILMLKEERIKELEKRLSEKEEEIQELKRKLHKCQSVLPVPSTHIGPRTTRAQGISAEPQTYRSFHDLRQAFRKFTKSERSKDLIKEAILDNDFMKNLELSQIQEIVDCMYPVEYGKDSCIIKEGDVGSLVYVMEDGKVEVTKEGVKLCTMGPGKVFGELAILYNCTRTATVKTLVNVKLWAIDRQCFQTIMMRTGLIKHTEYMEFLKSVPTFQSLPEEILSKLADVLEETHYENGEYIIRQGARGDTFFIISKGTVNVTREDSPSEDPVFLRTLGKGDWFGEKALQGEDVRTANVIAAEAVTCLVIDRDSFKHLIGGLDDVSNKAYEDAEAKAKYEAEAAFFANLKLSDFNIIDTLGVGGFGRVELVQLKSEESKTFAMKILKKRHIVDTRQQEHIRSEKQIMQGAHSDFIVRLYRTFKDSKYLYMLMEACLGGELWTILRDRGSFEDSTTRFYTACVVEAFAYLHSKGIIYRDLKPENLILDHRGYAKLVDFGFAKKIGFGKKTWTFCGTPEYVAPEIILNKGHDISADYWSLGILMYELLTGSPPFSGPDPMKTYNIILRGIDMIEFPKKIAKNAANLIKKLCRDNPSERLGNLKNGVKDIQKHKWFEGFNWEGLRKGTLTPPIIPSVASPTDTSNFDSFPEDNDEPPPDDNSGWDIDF

[13] = target: Serine/threonine-protein kinase PAK 4 (Homo sapiens) (UniProt O96013); assay: Inhibition of PAK4 (unknown origin) at 0.45 uM relative to control
Sequence of Serine/threonine-protein kinase PAK 4 (Homo sapiens) (O96013 whole entry, looked up): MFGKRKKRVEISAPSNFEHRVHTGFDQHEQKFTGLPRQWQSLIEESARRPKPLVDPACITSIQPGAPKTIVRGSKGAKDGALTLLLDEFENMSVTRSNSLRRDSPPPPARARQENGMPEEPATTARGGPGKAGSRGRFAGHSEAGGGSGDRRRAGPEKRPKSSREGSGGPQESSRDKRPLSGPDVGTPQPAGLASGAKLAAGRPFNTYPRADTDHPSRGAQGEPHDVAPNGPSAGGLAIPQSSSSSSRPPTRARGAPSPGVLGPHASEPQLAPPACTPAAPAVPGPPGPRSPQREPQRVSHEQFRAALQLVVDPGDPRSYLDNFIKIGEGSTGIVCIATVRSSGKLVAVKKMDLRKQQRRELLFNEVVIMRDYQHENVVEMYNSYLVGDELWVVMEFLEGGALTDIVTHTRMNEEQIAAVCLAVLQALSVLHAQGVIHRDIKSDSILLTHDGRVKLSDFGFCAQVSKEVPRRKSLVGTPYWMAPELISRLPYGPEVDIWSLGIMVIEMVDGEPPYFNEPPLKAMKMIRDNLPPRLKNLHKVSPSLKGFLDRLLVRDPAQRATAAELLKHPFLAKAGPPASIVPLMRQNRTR

[14] = target: Ephrin type-A receptor 2 (Homo sapiens) (UniProt P29317); assay: Inhibition of EPHA2 (unknown origin) at 0.45 uM relative to control
Sequence of Ephrin type-A receptor 2 (Homo sapiens) (P29317 whole entry): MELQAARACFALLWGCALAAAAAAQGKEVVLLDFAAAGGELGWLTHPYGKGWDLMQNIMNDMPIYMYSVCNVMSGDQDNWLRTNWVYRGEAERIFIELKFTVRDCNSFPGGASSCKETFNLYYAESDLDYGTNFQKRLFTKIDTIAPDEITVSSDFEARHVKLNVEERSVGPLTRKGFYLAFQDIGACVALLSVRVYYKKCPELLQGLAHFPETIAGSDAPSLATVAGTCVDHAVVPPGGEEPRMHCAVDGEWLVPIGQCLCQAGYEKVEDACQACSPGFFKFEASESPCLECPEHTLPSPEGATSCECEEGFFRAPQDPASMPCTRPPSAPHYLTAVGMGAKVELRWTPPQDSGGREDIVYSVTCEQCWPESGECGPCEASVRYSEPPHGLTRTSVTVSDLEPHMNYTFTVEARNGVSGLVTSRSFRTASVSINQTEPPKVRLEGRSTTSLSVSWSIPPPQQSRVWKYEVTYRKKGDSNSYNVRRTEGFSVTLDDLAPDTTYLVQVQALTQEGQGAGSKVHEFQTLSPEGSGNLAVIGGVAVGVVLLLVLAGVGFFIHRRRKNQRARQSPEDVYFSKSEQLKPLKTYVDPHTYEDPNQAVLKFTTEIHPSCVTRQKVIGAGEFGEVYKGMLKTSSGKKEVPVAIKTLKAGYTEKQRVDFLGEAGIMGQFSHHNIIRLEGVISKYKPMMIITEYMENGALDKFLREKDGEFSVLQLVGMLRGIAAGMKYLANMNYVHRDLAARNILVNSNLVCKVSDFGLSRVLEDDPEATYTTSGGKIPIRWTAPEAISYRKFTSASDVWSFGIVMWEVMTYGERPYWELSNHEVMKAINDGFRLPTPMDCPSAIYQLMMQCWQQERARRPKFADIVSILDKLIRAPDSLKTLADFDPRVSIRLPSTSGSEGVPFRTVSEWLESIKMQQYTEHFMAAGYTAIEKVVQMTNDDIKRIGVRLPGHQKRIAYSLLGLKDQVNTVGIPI

inhibition [1]: -10%
inhibition [2]: 8%
SMILES: COC(=O)Nc1noc2cc(-c3c(-c4ccccn4)n[nH]c3C)ccc12

inhibition [3]: 2.3%
inhibition [4]: 6.7%
inhibition [5]: 1.3%
inhibition [6]: 2.7%
inhibition [7]: 5%
inhibition [8]: 2%
inhibition [9]: 3.3%
inhibition (Homo sapiens): 2.3%
SMILES: Cc1[nH]nc(C2CC2)c1-c1ccc2c(NC(=O)C3CC3)noc2c1

inhibition [10]: 7%
inhibition [11]: 0%
inhibition [12]: 8%
inhibition [13]: 4%
inhibition [14]: 8%
SMILES: Cc1n[nH]c(C)c1-c1ccc2c(NC(=O)c3ccc(N4CCN(C)CC4)cc3)n[nH]c2c1
